Laboratory results taken from patent publication US20070060632A1, “Lofexidine” (TEXCONTOR ETABLISSEMENT, priority 2005, published 2007).
“And” between values parts separate entries of the source, which are not always exact repeats. Identical values can stand only once. Counter-ions that a name gives are not always drawn.

Columns and labels:
[1] = test system: rat model of post-operative pain; assay: Rat model of post-operative pain (hind paw incision), tactile allodynia by Electronic Von Frey; type: in vivo; settings: for Tactile Pressure Post-treatment, Average per rat: average of 4 points of one rat; for % Inhibition: Δ Treatment/Δ Blank × 100% / Δ Treatment: Tactile Pressure [(Post-Treatment) − (Pre-Treatment)]: group; for % Inh per rat: individual rat; for Tactile Pressure Post-Treatment: single points (4 per rat), 24 hours after surgery
Protocol: Lofexidine at 0.00032 and 0.0032 mg/rat injected intrathecally (ITH) was evaluated for possible analgesic activity in a rat model of post-operative pain which was induced with an incision made on the plantar surface of the hind paw. To measure tactile allodynia, a supertip with a flattened surface connected to Electrovonfrey Aesthethiometer (IITC, USA) was applied slowly and gently onto the plantar surface of the hind paw, where 4 points around the incision were identified. The endpoint is the mean withdrawal threshold values (gm) in response to von Frey filament, serving as a measure of analgesic activity. Percent inhibition was calculated as Δ treatment values (change in threshold pressure caused by treatment) relative to Δ blank values (change in threshold value caused by incision). Lofexidine.HCl was dissolved in 0.9% NaCl and at doses of 0.00032 and 0.0032 mg/rat was administered intrathecally (ITH). The dosing volume was 10 μl/rat. Male Wistar derived rats weighing 270±30 g provided by BioLasco Taiwan (under Charles River Laboratories Technology licensee) were used. Space allocation for animals was 45×23×15 cm for 6 rats. Animals were housed in APEC^R cages. All animals were maintained in a controlled temperature (22-24° C.) and humidity (60%-80%) environment with 12 hours light dark cycles for at least one week in MDS Pharma Services-Taiwan Laboratory prior to use. Free access to standard lab chow (Lab Diet, Rodent Diet, PMI Nutrition International, USA) and tap water was granted. All aspects of this work including housing, experimentation and disposal of animals were performed in general accordance with the Guide for the Care and Use of Laboratory Animals (National Academy Press, Washington, D. C, 1996). Groups of 5 male Wistar rats weighing 270±30 g were used. Prior to surgery, individual animals were acclimatised to the testing environment and baseline responses to Electronic Von Frey Aesthesiometer (2290CE Electrovonfrey®, IITC, USA) with a rigid tip were performed (Pre-Incision). Under pentobarbital (50 mg/kg, 5 ml/kg, i.p.) anesthesia, the left hind paw was aseptically prepared. A 1-cm longitudinal incision was made with a number 11 blade, through the skin and fascia of the plantar aspect of the foot, starting 0.5 cm from the proximal edge of the heel and extending toward the toes. The plantaris muscle was elevated and incised longitudinally, followed by crushing with a mosquito hemostat for 20 seconds. The muscle origin and insertion remained intact After hemostasis with gentle pressure, the skin and fascia were then closed as one layer using 4-0 silk suture. Evaluation for pain was performed at 24 hours postoperatively between 08:00 and 16:00 h. Each animal was monitored at 15, 30, 60 and 120 minutes after intrathecal administration of lofexidine.HCl. The rats were placed under inverted plexiglas cages on a wire mesh rack and a brief observation of general behavior post-injection was made. The rigid tip part of the Electronic Von Frey Aesthesiometer was applied perpendicularly from underneath the mesh floor to the four points around the wound surface of the animal with slow upward force against the paw. A positive response to tactile pressure was recorded if the paw was sharply withdrawn; ambulation was considered an ambiguous response, and in such cases, the stimulus was reapplied. Mean values from 4 points for each rat and from 5 rats in each group were calculated. Percent inhibition due to treatment relative to pre-treatment pain response was calculated according to the formula: Tactile Pressure [(Post-Treatment)−(Pre-Treatment)]/[(Pre-Incision)−(Pre-Treatment)]×100%. Inhibition by 50% or more (≧50%) is considered significant analgesic effect. Unpaired Student's t test is applied for comparison of the % inhibition values between test substance-and vehicle-treated groups. Significance is considered at P<0.05 level

chronic pelvic pain = settings: given orally, dosages of up to 1200 μg per day; cited from earlier work
[2] = test system: nerve ligation-induced chronic pain model in rats; assay: Nerve ligation-induced chronic (neuropathic) pain model in rats, mechanical allodynia by Electronic Von Frey; type: in vivo, rat; settings: for Tactile Pressure Post-Treatment, Average / Tactile Pressure Δ Treatment, Average: average of 5 rats; for Tactile Pressure Post-Treatment / Tactile Pressure Δ Treatment: individual rat
Protocol: Lofexidine was evaluated for possible analgesic activity in neuropathic pain using a nerve ligation-induced chronic pain model in rats. Lofexidine HCl was administered intrathecally (ITH) at 3.2 and 10 μg/animal and analgesia was measured at 15, 30, 60 and 120 minutes post-dosing using an Electronic Von Frey Aesthesiometer (IITC, USA) with a #12 supertip. A 50% or greater (≧50%) inhibition relative to blank indicates possible analgesic activity. Lofexidine HCl at doses of 3.2 and 10 μg/animal were administered intrathecally. Sterile Saline (obtained from Sintong Biotech Company, Taiwan) was used as vehicle and dosing volume was 10 μl/animal. Male Wistar rats weighing 160 to 200 g were used. Under pentobarbital (50 mg/kg, 5 ml/kg, i.p.) anesthesia, the sciatic nerve was exposed at mid-thigh level. Three ligatures (4-0 silk suture), about 1 mm apart, were loosely tied around the nerve. The animals were then housed individually in cages with soft bedding for 7 days before testing for mechanical allodynia. On the test day, rats were placed under inverted plexiglas cages on a wire mesh rack and allowed to acclimatise for 20 to 30 minutes. Allodynia was evaluated by responsiveness to a #12 Supertip® (IITC, USA) applied beneath the mesh floor perpendicular to the central plantar surface of the left hind paw. The tip was gradually applied with sufficient force to cause slight buckling of the filament against the paw. A positive response to the applied tactile pressure, noted by sharp withdrawal of the paw, was recorded automatically by an Electronic Von Frey Aesthesiometer (2290CE Electrovonfrey®, IITC, USA). The endpoint is the withdrawal threshold (gm) to von Frey filament, serving as a measure of analgesic activity. Rats were pre-selected (for presence of allodynia) for experimentation only if the withdrawal threshold 7 days after nerve ligation (pre-treatment) was reduced by 10 grams of force relative to the response of the individual paw before nerve ligation (pre-ligation). Test substance or vehicle was administered intrathecally (3.2 μg and 10 μg/animal) to groups of 5 animals and the level of allodynia was again determined (at 15, 30, 60 and 120 minutes post-treatment). Allodynia is calculated as follows: % Inhibition=ΔTreatment/ΔBlank×100%; where Δ Treatment is Tactile Pressure [(Post-Treatment)−(Pre-Treatment)] and Δ Blank is Tactile Pressure [(Pre-Ligation)−(Pre-Treatment)]. A 50 percent or greater (≧50%) inhibition relative to blank indicates possible analgesic activity.

[3] = systemically (orally or by intravenous injection), especially at high doses (>600 μg per day); cited from earlier work

## CC(Oc1c(Cl)cccc1Cl)C1=NCCN1 (centres unmarked) [Lofexidine HCl]
[1]; 0.00032 mg/rat ITH, 15 min.
  Tactile Pressure Post-treatment, Average per rat: 18.0 g
  % Inhibition: Δ Treatment/Δ Blank × 100%: 2.6%
  Δ Treatment: Tactile Pressure [(Post-Treatment) − (Pre-Treatment)]: 0.8 g
  % Inh per rat: −7.4% and 2.5% and −5.6% and 8.0%
[1]; 0.00032 mg/rat ITH, 30 min.
  % Inhibition: Δ Treatment/Δ Blank × 100%: 7.6%
  Δ Treatment: Tactile Pressure [(Post-Treatment) − (Pre-Treatment)]: 2.3 g
  % Inh per rat: −3.2% and 4.1%
  Tactile Pressure Post-Treatment: 26.0 g and 20.0 g
[1]; 0.00032 mg/rat ITH, 60 min.
  Tactile Pressure Post-treatment, Average per rat: 22.0 g
  % Inhibition: Δ Treatment/Δ Blank × 100%: 4.3%
  Δ Treatment: Tactile Pressure [(Post-Treatment) − (Pre-Treatment)]: 1.3 g
  % Inh per rat: −0.7% and 3.0% and 0.8% and 7.4%
  Tactile Pressure Post-Treatment: 22.0 g
[1]; 0.00032 mg/rat ITH, 120 min.
  % Inhibition: Δ Treatment/Δ Blank × 100%: 0.3%
  Δ Treatment: Tactile Pressure [(Post-Treatment) − (Pre-Treatment)]: 0.1 g
  % Inh per rat: −2.5% and −7.4% and 2.5% and 4.1% and 4.7%
  Tactile Pressure Post-Treatment: 21.0 g (2×) and 22.0 g and 18.0 g
[1]; 0.0032 mg/rat ITH, 15 min.
  Tactile Pressure Post-treatment, Average per rat: 46.0 g
  Tactile Pressure Post-Treatment: 43.0 g and 60.0 g
[1]; 0.0032 mg/rat ITH, 30 min.
  % Inh per rat: 47.0%
  Tactile Pressure Post-Treatment: 44.0 g
[1]; 0.0032 mg/rat ITH, 60 min.
  Δ Treatment: Tactile Pressure [(Post-Treatment) − (Pre-Treatment)]: 8.9 g
  % Inh per rat: −3.5% and 0.9%
  Tactile Pressure Post-Treatment: 29.0 g
[1]; 0.0032 mg/rat ITH, 120 min.
  Tactile Pressure Post-treatment, Average per rat: 22.0 g
  % Inhibition: Δ Treatment/Δ Blank × 100%: 5.5%
  Δ Treatment: Tactile Pressure [(Post-Treatment) − (Pre-Treatment)]: 1.8 g
  % Inh per rat: 1.2% and 5.8% and −2.5% and −8.2%
Chronic pelvic pain
  effectiveness in treatment of chronic pelvic pain: not effective
[2]; 3.2 μg/animal ITH, 15 Minutes
  Tactile Pressure Post-Treatment, Average: 12.5 g
  Tactile Pressure Δ Treatment, Average: 1.3 g
  Tactile Pressure Post-Treatment: 8.9 g and 5.8 g
  Tactile Pressure Δ Treatment: -1.8 g and -5.2 g and 8.5 g and 6.3 g and -1.1 g
[2]; 3.2 μg/animal ITH, 30 Minutes
  Tactile Pressure Δ Treatment, Average: -1.1 g
  Tactile Pressure Post-Treatment: 7.4 g and 8.5 g and 10.0 g
  Tactile Pressure Δ Treatment: -0.5 g and -3.8 g and -0.6 g and 1.4 g and -2.0 g
[2]; 3.2 μg/animal ITH, 60 Minutes
  Tactile Pressure Post-Treatment, Average: 9.3 g
  Tactile Pressure Δ Treatment, Average: -1.8 g
  Tactile Pressure Post-Treatment: 8.7 g and 7.5 g and 6.5 g
  Tactile Pressure Δ Treatment: -2.0 g and -3.7 g and -2.1 g and 4.2 g and -5.5 g
[2]; 3.2 μg/animal ITH, 120 Minutes
  Tactile Pressure Post-Treatment, Average: 9.2 g
  Tactile Pressure Δ Treatment, Average: -2.0 g
  Tactile Pressure Post-Treatment: 8.6 g and 6.1 g and 7.9 g
  Tactile Pressure Δ Treatment: -2.1 g and -5.1 g and -2.4 g and 0.8 g and -1.2 g
[2]; 10 μg/animal ITH, 15 Minutes
  Tactile Pressure Δ Treatment, Average: 13.0 g
  Tactile Pressure Post-Treatment: >36.8 g
  Tactile Pressure Δ Treatment: 1.5 g and 11.0 g
[2]; 10 μg/animal ITH, 30 Minutes
  Tactile Pressure Post-Treatment: 7.0 g and >31.5 g and >35.5 g
  Tactile Pressure Δ Treatment: -3.9 g and 4.3 g
[2]; 10 μg/animal ITH, 60 Minutes
  Tactile Pressure Post-Treatment: 8.9 g
  Tactile Pressure Δ Treatment: 8.4 g and 4.2 g and -2.4 g
[2]; 10 μg/animal ITH, 120 Minutes
  Tactile Pressure Post-Treatment, Average: 11.0 g
  Tactile Pressure Δ Treatment, Average: 0.6 g
  Tactile Pressure Post-Treatment: 6.4 g
  Tactile Pressure Δ Treatment: 1.4 g and -0.1 g and 5.2 g and 1.3 g and -4.9 g
[2]; 10 μg/animal intrathecal
  time of peak analgesic activity post-dosing: 30 min
[2]; 10 μg/animal intrathecal, 120 minutes post-dosing
  analgesic activity at 120 minutes post-dosing: no longer evident
[3]
  common symptoms associated with systemic use: drowsiness, sedation and blood pressure and heart rate increases

## CC(Oc1c(Cl)cccc1Cl)C1=NCCN1 (centres unmarked) [Lofexidine]
[1]; 0.00032 mg/rat ITH
  analgesic effect against post-operative pain: slight analgesic effect
[1]; 0.0032 mg/rat intrathecal, 15 and 30 minute time points, compared with Δ blank values
  analgesic effect against post-operative pain: demonstrated analgesic effect
[2]; 3.2 μg/animal intrathecal
  analgesic activity, neuropathic pain: low levels of analgesic activity
[2]; 10 μg/animal intrathecal, 30 minutes post-injection
  analgesic activity, neuropathic pain: significant analgesic activity
